From patent publication US8372808B2, “Suppression of glial fibrillary acidic protein” (Wisconsin Alumni Research Foundation, priority 2008, dated 2013)
Like-named read-outs stand apart in the source and are kept apart here.

What was measured:
mGFAP protein = assay: cell-based GFAP protein level assay (cell-based ELISA) in 172.9 cells; set-up: species or system mouse; conditions: for suppression in the protein assay: secondary screen, 10 μM, 48 hours; for % GFAP reductions, mGFAP protein via ELISA: tertiary screen, 48 hr exposure, at the MTDcc
[1] = tested on: 2.2 kb human GFAP promoter; assay: hGFAP promoter luciferase activity assay in 172.9 cells (primary astrocytes from dual luciferase transgenic mice); type: cell-based; conditions: for suppression in the promoter assay: secondary screen, 10 μM, 48 hours; for % GFAP reductions, luciferace expression from hGFAP promoter: tertiary screen, 48 hr exposure, at the MTDcc
Method: Cell-based assays were performed as four different screens using enriched cortical primary astrocyte cultures developed from transgenic mice expressing both firefly and Renilla luciferase reporter genes were generated. Briefly, the'firefly luciferase was placed under the control of a 2.2 kb human GFAP promoter to monitor GFAP transcription, and the Renilla luciferase was placed under the control of a 0.5 kb human GAPDH (glyceraldehyde 3-phosphate dehydrogenase) promoter to monitor transcription of a housekeeping gene for signal normalization. See section B, below for more detail regarding the development of transgenic mouse strains. Cells used in the following examples (e.g., the cortical primary astrocyte cells termed “172.9 cells,” described below) were developed from the transgenic mice described in section B.
Briefly, the cortices from individual pups were freed of meninges and placed into DMEM (Gibco) without serum, mechanically disassociated into single cells, suspended in medium containing DMEM supplemented with 10% fetal bovine serum (FBS; Hyclone), 100 U/ml penicillin, 100 μg/ml streptomycin (Gibco), seeded into T25 flasks (one brain per flask), and maintained in a humidified 5% CO2 atmosphere at 37° C. […] Medium was changed every 3 days. At 14-16 days in vitro (DIV), the flasks were shaken overnight at 200 rpm to remove oligodendrocytes and microglia. […] The cells were then suspended in DMEM with 10% FBS and plated (“passage 2”) on either 35 mm dishes, […], or 96-well plates (Corning) as needed. Cells were grown for varying days in vitro (DIV) at passage 2 and then used for various experiments. Tissue culture dishes and plates were pre-coated with 100 μg/ml poly-L-lysine for 1 h in a humidified 5% CO2 atmosphere at 37° C., and then allowed to air dry. […] Cell density was measured with the Vi-CELL cell counter (Beckman Coulter) or hemocytometer by the trypan-blue exclusion method. For simplicity, cells are referred to as “172.9 cells.”
Briefly, 172.9 cells were plated on poly-L coated white 96-well plates at a density of 5000 cells per well, in 100 μl DMEM with 10% FBS. At twenty-four hours, cells were exposed to the different compounds at a final concentration of 10 μM (diluted from a 50 mM stock) prepared in new medium (DMEM with 10% FBS). […] After exposure to compounds, luciferase activity in the primary and secondary screenings was determined by adding 30 μl of Bright-Glo™ reagent (Promega) to the 100 μl of media and cells of each well in the white 96-well plates with the Biomek® FX liquid handler (Beckman Coulter). After incubation for 1 minute at room temperature, signals were measured with the Safire 2 plate reader using Magellan™ software (Tecan). Other specific methods and equipment are known in the art and can be used to measure luciferase expression levels. This assay method is termed the “hGFAP promoter luciferase activity assay.” A reduction in luciferase expression as determined by this assay is termed “hGFAP promoter luciferase reduction.” For some assays that were aimed at confirming results of the initial screens, the same amount of Bright-Glo™ reagent was applied to each well in 96-well plates and signals were detected with the GloRunner™ Microplate Luminometer (Turner Biosystems) using the Dual-Glo® luciferase assay according to the manufacturer's recommendations (E1910, Promega).
In the secondary screen, cells were plated in a 96-well plate as described above for the primary screen.
Some compounds were unavailable outside of the library collections, and could not be further tested.
Each compound and concentration was analyzed in quadruplicate wells.
Compounds were tested at eight different concentrations ranging from 0-20 μM. In addition, GFAP protein levels were measured using a sandwich ELISA, which has greater sensitivity and is more accurate than the cell-based ELISA used in the primary screens.

172.9 cells = assay: cell viability (CellTiter-Glo) / MTDcc in 172.9 cells
Method: Criterion for acceptable viability was >70% survival.
Cell viability was determined as follows. After exposure to each compound (duplicate wells per compound), 50 μl of CellTitier-Glo Luminescent Cell Viability Assay reagent (G7571, Promega) was added to the 100 μl of media present in each well, and the luminescent signal (reflecting intracellular ATP level) was detected with either a Victor 3-V plate reader (Perkin Elmer) or GloRunner Microplate Luminometer (Turner Biosystems). Cell viability was expressed as a percent of non-treated control cells.
A dose-response curve was created for each compound (0.1, 0.5, 1, 5, 10, 15, 20 μM) using 48 hr exposures. The MTDcc (“maximum tolerated dose—cell culture”) indicates the highest concentration that retained at least 70% cell viability. Each compound and concentration was analyzed in quadruplicate wells. EGCDG: epigallocatechin 3,5-digallate; NPPB: 5-nitro-2-phenylproplyaminobenzoic acid. As used herein, MTDcc refers to the MTD as determined by this assay under the above conditions.

[2] = tertiary screen, 48 hr exposure, 0.1-20 μM, highest concentration that retained at least 70% cell viability

`COc1ccc2c(c1)O[C@@H]1COc3cc(OC)c(OC)cc3[C@@H]1C2=O` [mundoserone] was tested, and the “suppression in the protein assay” value (mGFAP protein) was “significant suppression”, the “% GFAP reductions, mGFAP protein via ELISA” value (mGFAP protein) was 1.6% and the “suppression in the promoter assay” value [1] was “significant suppression”. For the same compound, the “% GFAP reductions, luciferace expression from hGFAP promoter” value (from here on “% GFAP reductions, luciferace expression”) [1] was 50% and the MTDcc (172.9 cells; mouse, 48 h) was over 20 µM.

With `OCCN1CCN(CCCN2c3ccccc3Sc3ccc(C(F)(F)F)cc32)CC1` [fluphenazine] the “% GFAP reductions, mGFAP protein via ELISA” value (mGFAP protein) was −6.7%, the “% GFAP reductions, luciferace expression” value [1] was 23% and the MTDcc (172.9 cells; mouse, 48 h) was 7.5 µM.

`CN(C)CC/C=C1/c2ccccc2Sc2ccc(Cl)cc21` [chlorprothixene] was tested, and the “% GFAP reductions, mGFAP protein via ELISA” value (mGFAP protein) was −3.6%, the “% GFAP reductions, luciferace expression” value [1] was 60% and the MTDcc (172.9 cells; mouse, 48 h) was 17.5 µM.

With `O=C(N[C@H](CO)[C@H](O)c1ccc([N+](=O)[O-])cc1)C(Cl)Cl` [chloramphenicol] the “% GFAP reductions, mGFAP protein via ELISA” value (mGFAP protein) was 0.9%, the “% GFAP reductions, luciferace expression” value [1] was 16% and the MTDcc (172.9 cells; mouse, 48 h) was over 20 µM.

`CC(=O)Nc1ccc(OC(=O)c2ccccc2O)cc1` [4-acetamidophenyl salicylate] was tested, and the “% GFAP reductions, mGFAP protein via ELISA” value (mGFAP protein) was 8.6%, the “% GFAP reductions, luciferace expression” value [1] was 17% and the MTDcc (172.9 cells; mouse, 48 h) was over 20 µM.

`CC1(C)C(=O)C=C[C@]2(C)[C@H]3CC[C@@]4(C)[C@H](c5ccoc5)OC(=O)[C@H]5O[C@]54[C@]3(C)C=C[C@@H]12` [7-desacetoxy-6,7-dehydrogedunin] was tested, and the “suppression in the protein assay” value (mGFAP protein) was “significant suppression” and the “suppression in the promoter assay” value [1] was “significant suppression”.

`Cc1nc2sccn2c(=O)c1CCN1CCC(=C(c2ccc(F)cc2)c2ccc(F)cc2)CC1` [ritanserin] was tested, and the “% GFAP reductions, mGFAP protein via ELISA” value (mGFAP protein) was 9.6%, the “% GFAP reductions, luciferace expression” value [1] was 29% and the MTDcc (172.9 cells; mouse, 48 h) was 12.5 µM.

In the case of `CN(C)/N=N/c1[nH]cnc1C(N)=O` [decarbazine], the “% GFAP reductions, mGFAP protein via ELISA” value (mGFAP protein) is reported as 2.4%, the “% GFAP reductions, luciferace expression” value [1] is reported as 7% and the MTDcc (172.9 cells; mouse, 48 h) is reported as over 20 µM.

In the case of `CC(NCCc1ccc(O)cc1)C(O)c1ccc(O)cc1` (stereo not drawn) [ritodrine], the “% GFAP reductions, mGFAP protein via ELISA” value (mGFAP protein) is reported as 5.2%, the “% GFAP reductions, luciferace expression” value [1] is reported as 16% and the MTDcc (172.9 cells; mouse, 48 h) is reported as over 20 µM.

In the case of `O=c1c(-c2cc(O)c(O)c(O)c2)coc2cc(O)c(O)c(O)c12` [irigenol], the “suppression in the protein assay” value (mGFAP protein) is reported as “significant suppression”, the “% GFAP reductions, mGFAP protein via ELISA” value (mGFAP protein) is reported as 1.8% and the “suppression in the promoter assay” value [1] is reported as “significant suppression”. For the same compound, the “% GFAP reductions, luciferace expression” value [1] was 28% and the MTDcc (172.9 cells; mouse, 48 h) was over 20 µM.

With `COc1ccc(C(=O)O)cc1OC` [veratic acid] the “% GFAP reductions, mGFAP protein via ELISA” value (mGFAP protein) was −0.8%, the “% GFAP reductions, luciferace expression” value [1] was 6% and the MTDcc (172.9 cells; [2]) was over 20 µM.

With `CCOP(=S)(OCC)Oc1ccc2c(C)c(Cl)c(=O)oc2c1` [coumophos] the “% GFAP reductions, mGFAP protein via ELISA” value (mGFAP protein) was 0.4%, the “% GFAP reductions, luciferace expression” value [1] was 10% and the MTDcc (172.9 cells) was over 20 µM.

In the case of `COP(=S)(OC)SCn1nnc2ccccc2c1=O` [azinphos methyl], the “% GFAP reductions, mGFAP protein via ELISA” value (mGFAP protein) is reported as 4.7%, the “% GFAP reductions, luciferace expression” value [1] is reported as 18% and the MTDcc (172.9 cells; [2]) is reported as over 20 µM.

`CCOC(=O)C1=C(COCCN)NC(C)=C(C(=O)OC)C1c1ccccc1Cl` (stereo not drawn) [amlodipine besylate] was tested, and the “suppression in the protein assay” value (mGFAP protein) was “significant suppression” and the “suppression in the promoter assay” value [1] was “significant suppression”.

methylnorlichexanthone was tested, and the “% GFAP reductions, mGFAP protein via ELISA” value (mGFAP protein) was 0.6%, the “% GFAP reductions, luciferace expression” value [1] was 10% and the MTDcc (172.9 cells; [2]) was over 20 µM.

For `C=C1CC[C@H](O)C/C1=C/C=C1\CCC[C@]2(C)[C@@H]([C@H](C)CCCC(C)C)CC[C@@H]12` [colecalciferol], the “% GFAP reductions, mGFAP protein via ELISA” value (mGFAP protein) was −4.9%, the “% GFAP reductions, luciferace expression” value [1] was 24% and the MTDcc (172.9 cells; [2]) was over 20 µM.

`CCOC(=O)C1=C(COCCN)NC(C)=C(C(=O)OC)C1c1ccccc1Cl` (stereo not drawn) [amlodipine] was tested, and the “% GFAP reductions, luciferace expression” value [1] was 44% and the MTDcc (172.9 cells; [2]) was 12.5 µM.

For `CC(C)(C)c1ccc(C(O)CCCN2CCC(C(O)(c3ccccc3)c3ccccc3)CC2)cc1` (stereo not drawn) [terfenadine], the “% GFAP reductions, luciferace expression” value [1] was 14% and the MTDcc (172.9 cells; mouse, 48 h) was 2.5 µM.
